# Results: the NIST ThermoML archive (doi:10.1016/j.jct.2007.04.006)
# Numbers after ± are expanded uncertainties.
# Legend:
# [1] = 101.33 kPa, Liquid; for speed of sound: Sing-around technique in a fixed-path interferometer
# [2] = mn = molality of the nth substance listed, in mol/kg; settings: 101 kPa, Liquid; for speed of sound: Sing-around technique in a fixed-path interferometer
compound,measurement,setting,value
"CC(=O)N(C)C [N,N-dimethylethanamide]",mass density,[1]; 323.15 K,913.129 ± 0.18 kg/m3
same,speed of sound,[1]; 323.15 K,1357.8 ± 1.3 m/s
CC(C)=O [acetone],mass density,[1]; 298.15 K,784.233 ± 0.31 kg/m3
same,speed of sound,[1]; 298.15 K,1161.7 ± 1.3 m/s
CC#N [acetonitrile],mass density,[1]; 298.15 K,776.6 ± 0.31 kg/m3
same,speed of sound,[1]; 298.15 K,1279.2 ± 1.3 m/s
CCO [ethanol],mass density,[1]; 298.15 K,785.125 ± 0.31 kg/m3
same,speed of sound,[1]; 298.15 K,1143.4 ± 1.2 m/s
[Br-].[Li+] [lithium bromide] + CC#N,speed of sound,"[2]; 298.15 K, m1 = 0.0209",1279.8 ± 1.3 m/s
same,speed of sound,"[2]; 298.15 K, m1 = 0.0302",1280.1 ± 1.3 m/s
same,speed of sound,"[2]; 298.15 K, m1 = 0.0403",1280.4 ± 1.3 m/s
same,speed of sound,"[2]; 298.15 K, m1 = 0.0478",1280.6 ± 1.3 m/s
same,speed of sound,"[2]; 298.15 K, m1 = 0.07",1281.3 ± 1.3 m/s
same,speed of sound,"[2]; 298.15 K, m1 = 0.0799",1281.6 ± 1.3 m/s
same,speed of sound,"[2]; 298.15 K, m1 = 0.0904",1281.9 ± 1.3 m/s
same,speed of sound,"[2]; 298.15 K, m1 = 0.0986",1282.1 ± 1.3 m/s
same,speed of sound,"[2]; 298.15 K, m1 = 0.1212",1282.8 ± 1.3 m/s
same,speed of sound,"[2]; 298.15 K, m1 = 0.1506",1283.7 ± 1.3 m/s
same,speed of sound,"[2]; 298.15 K, m1 = 0.1985",1285 ± 1.3 m/s
same,speed of sound,"[2]; 298.15 K, m1 = 0.2498",1286.4 ± 1.3 m/s
same,speed of sound,"[2]; 298.15 K, m1 = 0.2981",1287.7 ± 1.3 m/s
same,speed of sound,"[2]; 298.15 K, m1 = 0.3974",1290.4 ± 1.3 m/s
same,speed of sound,"[2]; 298.15 K, m1 = 0.5004",1293.1 ± 1.3 m/s
same,speed of sound,"[2]; 298.15 K, m1 = 0.596",1295.6 ± 1.3 m/s
same,speed of sound,"[2]; 298.15 K, m1 = 0.6972",1298.2 ± 1.3 m/s
same,mass density,"[2]; 298.15 K, m1 = 0.0209",778.135 ± 0.32 kg/m3
same,mass density,"[2]; 298.15 K, m1 = 0.0302",778.802 ± 0.32 kg/m3
same,mass density,"[2]; 298.15 K, m1 = 0.0403",779.512 ± 0.32 kg/m3
same,mass density,"[2]; 298.15 K, m1 = 0.0478",780.04 ± 0.31 kg/m3
same,mass density,"[2]; 298.15 K, m1 = 0.07",781.58 ± 0.31 kg/m3
same,mass density,"[2]; 298.15 K, m1 = 0.0799",782.247 ± 0.31 kg/m3
same,mass density,"[2]; 298.15 K, m1 = 0.0904",782.95 ± 0.31 kg/m3
same,mass density,"[2]; 298.15 K, m1 = 0.0986",783.518 ± 0.31 kg/m3
same,mass density,"[2]; 298.15 K, m1 = 0.1212",784.97 ± 0.31 kg/m3
same,mass density,"[2]; 298.15 K, m1 = 0.1506",786.812 ± 0.31 kg/m3
same,mass density,"[2]; 298.15 K, m1 = 0.1985",789.96 ± 0.3 kg/m3
same,mass density,"[2]; 298.15 K, m1 = 0.2498",793.354 ± 0.3 kg/m3
same,mass density,"[2]; 298.15 K, m1 = 0.2981",796.544 ± 0.3 kg/m3
same,mass density,"[2]; 298.15 K, m1 = 0.3974",803.094 ± 0.29 kg/m3
same,mass density,"[2]; 298.15 K, m1 = 0.5004",809.733 ± 0.28 kg/m3
same,mass density,"[2]; 298.15 K, m1 = 0.596",815.99 ± 0.28 kg/m3
same,mass density,"[2]; 298.15 K, m1 = 0.6972",822.595 ± 0.27 kg/m3
[Br-].[Li+] [lithium bromide] + CC(=O)N(C)C,speed of sound,"[2]; 323.15 K, m1 = 0.0322",1360.8 ± 1.3 m/s
same,speed of sound,"[2]; 323.15 K, m1 = 0.0511",1362.5 ± 1.3 m/s
same,speed of sound,"[2]; 323.15 K, m1 = 0.0638",1363.6 ± 1.3 m/s
same,speed of sound,"[2]; 323.15 K, m1 = 0.0978",1366.4 ± 1.3 m/s
same,speed of sound,"[2]; 323.15 K, m1 = 0.1188",1368.1 ± 1.3 m/s
same,speed of sound,"[2]; 323.15 K, m1 = 0.1475",1370.3 ± 1.3 m/s
same,speed of sound,"[2]; 323.15 K, m1 = 0.2003",1374.4 ± 1.3 m/s
same,speed of sound,"[2]; 323.15 K, m1 = 0.2472",1378.2 ± 1.3 m/s
same,speed of sound,"[2]; 323.15 K, m1 = 0.3042",1382.1 ± 1.3 m/s
same,speed of sound,"[2]; 323.15 K, m1 = 0.3988",1389.2 ± 1.3 m/s
same,speed of sound,"[2]; 323.15 K, m1 = 0.4886",1395.9 ± 1.3 m/s
same,speed of sound,"[2]; 323.15 K, m1 = 0.601",1403.8 ± 1.3 m/s
same,speed of sound,"[2]; 323.15 K, m1 = 0.7053",1411.4 ± 1.3 m/s
same,speed of sound,"[2]; 323.15 K, m1 = 0.9019",1425.5 ± 1.3 m/s
same,speed of sound,"[2]; 323.15 K, m1 = 1",1432.6 ± 1.3 m/s
same,speed of sound,"[2]; 323.15 K, m1 = 1.189",1446.1 ± 1.3 m/s
same,speed of sound,"[2]; 323.15 K, m1 = 1.327",1455.4 ± 1.3 m/s
same,mass density,"[2]; 323.15 K, m1 = 0.0322",915.827 ± 0.19 kg/m3
same,mass density,"[2]; 323.15 K, m1 = 0.0511",917.401 ± 0.19 kg/m3
same,mass density,"[2]; 323.15 K, m1 = 0.0638",918.452 ± 0.19 kg/m3
same,mass density,"[2]; 323.15 K, m1 = 0.0978",921.232 ± 0.19 kg/m3
same,mass density,"[2]; 323.15 K, m1 = 0.1188",922.89 ± 0.19 kg/m3
same,mass density,"[2]; 323.15 K, m1 = 0.1475",925.178 ± 0.18 kg/m3
same,mass density,"[2]; 323.15 K, m1 = 0.2003",929.349 ± 0.18 kg/m3
same,mass density,"[2]; 323.15 K, m1 = 0.2472",933.065 ± 0.18 kg/m3
same,mass density,"[2]; 323.15 K, m1 = 0.3042",937.515 ± 0.17 kg/m3
same,mass density,"[2]; 323.15 K, m1 = 0.3988",944.893 ± 0.17 kg/m3
same,mass density,"[2]; 323.15 K, m1 = 0.4886",951.867 ± 0.16 kg/m3
same,mass density,"[2]; 323.15 K, m1 = 0.601",960.362 ± 0.15 kg/m3
same,mass density,"[2]; 323.15 K, m1 = 0.7053",968.26 ± 0.15 kg/m3
same,mass density,"[2]; 323.15 K, m1 = 0.9019",982.963 ± 0.14 kg/m3
same,mass density,"[2]; 323.15 K, m1 = 1",990.219 ± 0.13 kg/m3
same,mass density,"[2]; 323.15 K, m1 = 1.189",1004.06 ± 0.13 kg/m3
same,mass density,"[2]; 323.15 K, m1 = 1.327",1013.96 ± 0.13 kg/m3
[Br-].[Li+] [lithium bromide] + CC(C)=O,speed of sound,"[2]; 298.15 K, m1 = 0.0301",1141.5 ± 1.3 m/s
same,speed of sound,"[2]; 298.15 K, m1 = 0.0367",1142.3 ± 1.3 m/s
same,speed of sound,"[2]; 298.15 K, m1 = 0.0486",1142.6 ± 1.3 m/s
same,speed of sound,"[2]; 298.15 K, m1 = 0.0679",1143.1 ± 1.3 m/s
same,speed of sound,"[2]; 298.15 K, m1 = 0.0776",1143.3 ± 1.3 m/s
same,speed of sound,"[2]; 298.15 K, m1 = 0.0873",1144.5 ± 1.3 m/s
same,speed of sound,"[2]; 298.15 K, m1 = 0.099",1146.2 ± 1.3 m/s
same,speed of sound,"[2]; 298.15 K, m1 = 0.1177",1148.1 ± 1.3 m/s
same,speed of sound,"[2]; 298.15 K, m1 = 0.1424",1150.9 ± 1.3 m/s
same,speed of sound,"[2]; 298.15 K, m1 = 0.3719",1152.3 ± 1.3 m/s
same,speed of sound,"[2]; 298.15 K, m1 = 0.4973",1154.5 ± 1.3 m/s
same,speed of sound,"[2]; 298.15 K, m1 = 0.5928",1157.7 ± 1.3 m/s
same,speed of sound,"[2]; 298.15 K, m1 = 0.7044",1160.3 ± 1.3 m/s
same,speed of sound,"[2]; 298.15 K, m1 = 0.8",1162.3 ± 1.3 m/s
same,mass density,"[2]; 298.15 K, m1 = 0.0301",784.377 ± 0.38 kg/m3
same,mass density,"[2]; 298.15 K, m1 = 0.0367",785.81 ± 0.32 kg/m3
same,mass density,"[2]; 298.15 K, m1 = 0.0486",786.228 ± 0.31 kg/m3
same,mass density,"[2]; 298.15 K, m1 = 0.0679",787.379 ± 0.31 kg/m3
same,mass density,"[2]; 298.15 K, m1 = 0.0776",787.748 ± 0.34 kg/m3
same,mass density,"[2]; 298.15 K, m1 = 0.0873",790.137 ± 0.41 kg/m3
same,mass density,"[2]; 298.15 K, m1 = 0.099",793.601 ± 0.38 kg/m3
same,mass density,"[2]; 298.15 K, m1 = 0.1177",797.348 ± 0.37 kg/m3
same,mass density,"[2]; 298.15 K, m1 = 0.1424",803.296 ± 0.38 kg/m3
same,mass density,"[2]; 298.15 K, m1 = 0.3719",806.427 ± 0.29 kg/m3
same,mass density,"[2]; 298.15 K, m1 = 0.4973",811.456 ± 0.28 kg/m3
same,mass density,"[2]; 298.15 K, m1 = 0.5928",818.719 ± 0.28 kg/m3
same,mass density,"[2]; 298.15 K, m1 = 0.7044",824.988 ± 0.27 kg/m3
same,mass density,"[2]; 298.15 K, m1 = 0.8",829.74 ± 0.27 kg/m3
